Test results from patent publication US20250230193A1, “CYCLIC COMPOUND HAVING SELECTIVE KRAS INHIBITORY EFFECT ON HRAS AND NRAS” (CHUGAI SEIYAKU KABUSHIKI KAISHA, priority 2022, published 2025).

What was measured:
[1] = molecular target: GDP-bound NRAS wild-type protein (Homo sapiens, UniProt P01111); assay: Binding to NRAS by surface plasmon resonance (SPR), Single Cycle Kinetics; settings: for NRAS/KRAS (ratio of KD value for NRAS to KD value for KRAS) / NRAS/KRAS (ratio of KD value with respect to NRAS to KD value with respect to KRAS): GDP-bound NRAS wild-type vs GDP-bound KRAS wild-type, SPR; for NRAS/KRAS (ratio of KD value with respect to GDP-bound NRAS wild-type protein to KD value with respect to KRAS): class symbols
[2] = molecular target: GDP-bound HRAS wild-type protein (Homo sapiens, UniProt P01112); assay: Binding to HRAS by surface plasmon resonance (SPR), Single Cycle Kinetics; settings: for HRAS/KRAS (ratio of KD value for HRAS to KD value for KRAS) / HRAS/KRAS (ratio of KD value with respect to HRAS to KD value with respect to KRAS): GDP-bound HRAS wild-type vs GDP-bound KRAS wild-type, SPR; for HRAS/KRAS (ratio of KD value with respect to GDP-bound HRAS wild-type protein to KD value with respect to KRAS): class symbols
Sequence of GDP-bound HRAS wild-type protein (P01112 whole entry): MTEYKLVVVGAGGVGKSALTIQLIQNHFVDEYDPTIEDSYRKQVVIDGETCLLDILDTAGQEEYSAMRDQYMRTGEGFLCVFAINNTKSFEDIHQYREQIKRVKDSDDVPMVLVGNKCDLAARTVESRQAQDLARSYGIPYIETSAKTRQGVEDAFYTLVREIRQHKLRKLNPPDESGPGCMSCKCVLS

Sequence of GDP-bound NRAS wild-type protein (P01111 whole entry): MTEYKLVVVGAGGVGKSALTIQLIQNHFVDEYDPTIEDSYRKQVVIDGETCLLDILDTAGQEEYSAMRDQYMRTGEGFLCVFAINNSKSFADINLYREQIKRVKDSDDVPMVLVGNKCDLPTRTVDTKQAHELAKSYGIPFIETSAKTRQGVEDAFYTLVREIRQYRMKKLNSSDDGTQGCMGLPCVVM

## CCO[C@@H]1C[C@H]2C(=O)NC3(CCC3)C(=O)N(C)[C@@H](C3CCCC3)C(=O)N3CCC[C@@H]3CC(=O)N(C)[C@@H](CC3CC3)C(=O)N[C@@H]([C@@H](C)CC)C(=O)N(C)CC(=O)N(C)[C@H]3C/C=C\CCN(C3=O)[C@@H](Cc3ccc(C(F)(F)F)cc3)C(=O)N(C)CC(=O)N[C@@H](CCc3ccc(C(F)(F)F)c(OC)c3)C(=O)N2C1 [PP1616]
[1]; KD ratio
  NRAS/KRAS (ratio of KD value for NRAS to KD value for KRAS): B (a compound having 3 or more and less than 10 is denoted as B)
[2]; KD ratio
  HRAS/KRAS (ratio of KD value for HRAS to KD value for KRAS): B (a compound having 3 or more and less than 10 is denoted as B)

## CCOC[C@H]1C(=O)N[C@@H]([C@@H](C)CC)C(=O)N(C2CC2)CC(=O)N(C)[C@@H]2C/C=C\CCN(C2=O)[C@@H](Cc2ccc(C)cc2)C(=O)N(C)CC(=O)N[C@@H](CCc2ccc(C(F)(F)F)c(OC)c2)C(=O)N2C[C@H](OCC)C[C@@H]2C(=O)NC2(CC(C)(C)C2)C(=O)N(C)[C@H](CC2CCC2)C(=O)N(C)[C@H](C(=O)N(C)C)CC(=O)N1C (stereo in doubt) [PP2760]
[1]
  NRAS/KRAS (ratio of KD value with respect to GDP-bound NRAS wild-type protein to KD value with respect to KRAS): A (a compound having 10 or more and less than 20 is denoted as A)
[2]
  HRAS/KRAS (ratio of KD value with respect to GDP-bound HRAS wild-type protein to KD value with respect to KRAS): B (a compound having 3 or more and less than 10 is denoted as B)

## CCC[C@H]1C(=O)N[C@@H]([C@@H](C)CC)C(=O)N(C)CC(=O)N(C)[C@H]2C/C=C\CCN(C2=O)[C@@H](CC2CCCCC2)C(=O)N(C)CC(=O)N[C@@H](CCc2ccc(C(F)(F)F)c(OC)c2)C(=O)N2C[C@H](OCC)C[C@H]2C(=O)N(C)C2(CCC2)C(=O)N(C)[C@@H](C(CC)CC)C(=O)N(C)[C@H](C(=O)N(C)C)CC(=O)N1C [PP2333]
[1]
  NRAS/KRAS (ratio of KD value with respect to NRAS to KD value with respect to KRAS): A (a compound having 10 or more and less than 20 is denoted as A)
[2]
  HRAS/KRAS (ratio of KD value with respect to HRAS to KD value with respect to KRAS): A (a compound having 10 or more and less than 20 is denoted as A)

## CCC[C@H]1C(=O)N[C@@H]([C@@H](C)CC)C(=O)N(C)CC(=O)N(C)[C@H]2C/C=C\CCN(C2=O)[C@@H](Cc2ccc(C(F)(F)F)cc2)C(=O)N(C)CC(=O)N[C@@H](CCc2ccc3ccn(C)c3c2)C(=O)N2C[C@H](OCC)C[C@H]2C(=O)NC2(CC(C)(C)C2)C(=O)N(C)[C@@H](C(CC)CC)C(=O)N(C)[C@H](C(=O)N(C)C)CC(=O)N1C [PP2912]
[1]
  NRAS/KRAS (ratio of KD value with respect to GDP-bound NRAS wild-type protein to KD value with respect to KRAS): AA (a compound having 20 or more is denoted as AA)
[2]
  HRAS/KRAS (ratio of KD value with respect to GDP-bound HRAS wild-type protein to KD value with respect to KRAS): A (a compound having 10 or more and less than 20 is denoted as A)

## CCO[C@@H]1C[C@H]2C(=O)NC3(CC(C)(C)C3)C(=O)N(C)[C@@H](C(CC)CC)C(=O)N(C)[C@H](C(=O)N(C)C)CC(=O)N(C)[C@@H](C(C)C)C(=O)N[C@@H]([C@@H](C)CC)C(=O)N(C)CC(=O)N(C)[C@H]3C/C=C\CCN(C3=O)[C@@H](Cc3ccc(C(F)(F)F)cc3)C(=O)N(C)CC(=O)N[C@@H](CCc3cc(F)c(C(F)(F)F)c(F)c3)C(=O)N2C1 [PP2135]
[1]
  NRAS/KRAS (ratio of KD value with respect to NRAS to KD value with respect to KRAS): AA (a compound having 20 or more is denoted as AA)
[2]
  HRAS/KRAS (ratio of KD value with respect to HRAS to KD value with respect to KRAS): A (a compound having 10 or more and less than 20 is denoted as A)

## CCCN(C)C(=O)[C@@H]1CC(=O)N(C)[C@@H](CC(C)C)C(=O)N[C@@H]([C@@H](C)CC)C(=O)N(C)CC(=O)N(C)[C@H]2C/C=C\CCN(C2=O)[C@@H](Cc2ccc(C(F)(F)F)cc2)C(=O)N(C)CC(=O)N[C@@H](CCc2cc(F)c(C(F)(F)F)c(F)c2)C(=O)N2C[C@H](OCC)C[C@H]2C(=O)NC2(COC2)C(=O)N(C)[C@@H](C2CCCC2)C(=O)N1C [PP1938]
[1]; KD ratio
  NRAS/KRAS (ratio of KD value for NRAS to KD value for KRAS): AA (a compound having 20 or more is denoted as AA)
[2]; KD ratio
  HRAS/KRAS (ratio of KD value for HRAS to KD value for KRAS): A (a compound having 10 or more and less than 20 is denoted as A)

## CCO[C@@H]1C[C@H]2C(=O)NC3(CCC3)C(=O)N(C)[C@@H](C3CCCC3)C(=O)N(C)[C@H](C(=O)N3CCOCC3)CC(=O)N(C)[C@@H](CC)C(=O)N[C@@H]([C@@H](C)CC)C(=O)N(C)CC(=O)N(C)[C@H]3CCCCCN(C3=O)[C@@H](Cc3ccc(F)cc3)C(=O)N(C)CC(=O)N[C@@H](CCc3cc(F)c(C(F)(F)F)c(F)c3)C(=O)N2C1 [PP1176]
[1]; KD ratio
  NRAS/KRAS (ratio of KD value with respect to NRAS to KD value with respect to KRAS): B (a compound having 3 or more and less than 10 is denoted as B)
[2]; KD ratio
  HRAS/KRAS (ratio of KD value with respect to HRAS to KD value with respect to KRAS): B (a compound having 3 or more and less than 10 is denoted as B)

## CCO[C@@H]1C[C@H]2C(=O)NC3(CC(C)(C)C3)C(=O)N(C)[C@@H](C3CCCC3)C(=O)N(C)[C@H](C(=O)N3CCOCC3)CC(=O)N(C)[C@@H](COC)C(=O)N[C@@H]([C@@H](C)CC)C(=O)N(C)CC(=O)N(C)[C@H]3CCCCCN(C3=O)[C@@H](Cc3ccc(C(F)(F)F)cc3)C(=O)N(C)CC(=O)N[C@@H](CCc3cc(F)c(C(F)(F)F)c(F)c3)C(=O)N2C1 [PP0844]
[1]; KD ratio
  NRAS/KRAS (ratio of KD value with respect to NRAS to KD value with respect to KRAS): B (a compound having 3 or more and less than 10 is denoted as B)
[2]; KD ratio
  HRAS/KRAS (ratio of KD value with respect to HRAS to KD value with respect to KRAS): B (a compound having 3 or more and less than 10 is denoted as B)
